Source: patent US20040229791A1, “Compositions and methods of modulating TGF-beta activity by fatty acids” (priority 2002, published 2004)

Legend:
native α2M = target: T1, native α2M (Homo sapiens, UniProt P01023); assay: Gel filtration of 3H-arachidonic acid with native α2M; format: binding; details: 100 μM 3H-arachidonic acid
T1 construct: was purified from pooled citrate-treate human plasma; from tissue; host or cells: pooled citrate-treated human plasma
T1 sequence (P01023 24-1474): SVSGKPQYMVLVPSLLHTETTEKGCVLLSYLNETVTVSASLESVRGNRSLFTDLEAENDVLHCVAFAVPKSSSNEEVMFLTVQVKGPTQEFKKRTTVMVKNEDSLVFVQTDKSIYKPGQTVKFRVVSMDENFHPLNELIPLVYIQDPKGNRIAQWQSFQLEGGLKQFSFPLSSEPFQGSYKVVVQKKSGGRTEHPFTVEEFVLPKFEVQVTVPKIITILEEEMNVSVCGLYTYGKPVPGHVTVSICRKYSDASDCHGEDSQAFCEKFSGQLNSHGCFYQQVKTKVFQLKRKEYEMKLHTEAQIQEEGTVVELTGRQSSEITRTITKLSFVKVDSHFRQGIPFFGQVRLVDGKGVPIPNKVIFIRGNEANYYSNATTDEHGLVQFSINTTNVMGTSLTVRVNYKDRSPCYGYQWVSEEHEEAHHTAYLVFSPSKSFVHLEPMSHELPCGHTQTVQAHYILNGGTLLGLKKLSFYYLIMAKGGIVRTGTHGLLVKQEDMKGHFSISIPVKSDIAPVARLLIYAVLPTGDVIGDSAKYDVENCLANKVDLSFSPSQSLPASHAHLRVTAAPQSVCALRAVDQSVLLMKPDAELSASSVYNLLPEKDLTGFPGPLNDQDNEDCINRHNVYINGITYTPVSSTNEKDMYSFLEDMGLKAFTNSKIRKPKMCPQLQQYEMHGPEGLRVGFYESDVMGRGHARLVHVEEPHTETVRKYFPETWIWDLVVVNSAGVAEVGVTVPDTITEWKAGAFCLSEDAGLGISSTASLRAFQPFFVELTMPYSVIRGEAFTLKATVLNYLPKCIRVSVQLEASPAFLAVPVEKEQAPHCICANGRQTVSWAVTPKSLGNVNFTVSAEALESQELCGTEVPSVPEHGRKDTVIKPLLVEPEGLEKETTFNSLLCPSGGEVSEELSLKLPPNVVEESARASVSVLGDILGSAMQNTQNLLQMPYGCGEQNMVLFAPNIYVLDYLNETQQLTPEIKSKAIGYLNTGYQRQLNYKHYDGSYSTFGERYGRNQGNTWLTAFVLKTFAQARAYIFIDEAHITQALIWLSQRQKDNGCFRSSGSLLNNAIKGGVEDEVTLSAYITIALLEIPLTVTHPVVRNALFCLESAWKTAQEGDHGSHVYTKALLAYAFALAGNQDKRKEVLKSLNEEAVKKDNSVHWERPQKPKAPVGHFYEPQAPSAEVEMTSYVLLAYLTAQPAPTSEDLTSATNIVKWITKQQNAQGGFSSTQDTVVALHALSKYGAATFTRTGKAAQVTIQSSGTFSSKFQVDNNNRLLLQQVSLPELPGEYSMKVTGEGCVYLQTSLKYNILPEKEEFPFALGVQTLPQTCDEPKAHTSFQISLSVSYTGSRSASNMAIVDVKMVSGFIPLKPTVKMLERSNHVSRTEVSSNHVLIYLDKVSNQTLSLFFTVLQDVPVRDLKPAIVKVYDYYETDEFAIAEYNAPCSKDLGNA
Experimental: The interaction of ^3H-arachidonic acid and α2M* was determined using gel filtration. ^3H-arachidonic acid was incubated with native ? 2M or ? 2M*, which was activated by methylamine. After incubation at room temperature for 30 min, the reaction mixture was subjected to gel filtration chromatography on Sephacryl® S-300 HR. The ^3H-arachidonic acid radioactivity and concentrations of. α2M* or native ? 2M in the eluents were determined by scintillation counting and 5% SDS-PAGE followed by Coomassie blue staining, respectively. […] The small peak, which appeared in the flow-through fractions, contained the ^3H-arachidonic acid- ? 2M* complex and free ? 2M*, which was identified by Coomassie blue staining (FIG. 5, inset). The subsequent large peak, which appeared in the column bed volume fractions, was identified as free ^3H-arachidonic acid.
Gel Filtration of ^3H-arachidonic acid-α2M* Complexes—The reaction mixture contained 100 μM ^3H-arachidonic acid with or without 10 μg of ? 2M*, which was activated by methylamine and plasmin as described previously (12,22), or native ? […] The column was then eluted with the same phosphate buffer and the fractional volume was ˜1 ml, 20 μl of which was counted with a scintillation counter and an another 20 μl of which was analyzed by SDS-PAGE followed by Coomassie blue staining (to locate fractions containing. α2M* or native ? 2M).

125I-TGF-β1-α2M* complex = target: T2, 125I-TGF-β1-α2M* complex (Homo sapiens, UniProt P01023); assay: Dissociation of preformed 125I-TGF-β1-α2M* complex; format: binding; details: added after 30 min preincubation of complex
T2 construct: was purified from pooled citrate-treate human plasma; from tissue; host or cells: pooled citrate-treated human plasma
T2 sequence (P01023 24-1474): T1 sequence (P01023 24-1474)
Experimental: To determine whether fatty acids are capable of dissociating TGF- ? - ? 2M* complexes, various concentrations of arachidonic acid were added to a reaction mixture containing ^125I-TGF- ? 1 or ^125I-TGF ? β3 and α2M* which had been preincubated at room temperature for 30 mi 30 minutes at room temperature, the ^125I-TGF ? β isoform-α2M* complexes in the reaction mixtures were analyzed by 5% non-denaturing PAGE. […] However, lower concentrations of arachidonic acid were effective in inhibiting complex formation of ^125I-TGF- ? 1 and α2M* than were required to dissociate the ^125I-TGF- ? 1- ? 2M* complex.

Compound: CCCCC/C=C\C/C=C\C/C=C\C/C=C\CCCC(=O)O [arachidonic acid]
- complex formation with native α2M (native α2M): no complex formation
- dissociation of the 125I-TGF-β1-α2M* complex (125I-TGF-β1-α2M* complex): able to dissociate
